Where two headings read alike, the source gives them in different places.
Legend:
HepaRG cells [1] = details: HepaRG 24 h; for Number of apoptotic cells (nuclear morphology) response (in words): population level, threshold ± 2 standard deviations of the response at the two lowest concentrations
Procedure: (§3) Cellular responses were quantified using a high-content imaging approach (Fig. 1). Based on cell viability assessment, concentrations below the EC50 level were tested in the high-content imaging assay. After 24 h chemical exposure, live cells were incubated with CellROX, which reflects hydroxyl radi [...

HepaRG cells [2] = assay: High-content imaging assay: lipid accumulation (Bodipy lipid droplets); type: cell-based; details: HepaRG 24 h; for Lipid accumulation response (in words): population level, threshold ± 2 standard deviations of the response at the two lowest concentrations; for EC (BMC, 1 SD from control): Homo sapiens, lipid accumulation, Supplementary table 3, read-out: LA: Benchmark concentration (µM) per imaging endpoint calculated with BMDS software
[3] = IVIVE reverse dosimetry: oral equivalent dose (OED) from BMC; details: IVIVE derived median over all positive imaging endpoints; rat simulation (R script); Table 2
Description: (§1) Human data were used except where otherwise stated. […]
mc_OED_WY14643_LD <- calc_mc_oral_equiv(40.98, chem.cas="50892-23-4", model = "3compartmentss",species="Rat", return.samples = T, samples=1000, httkpop = T) mc_OED_WY14643_MD <- calc_mc_oral_equiv(38.1, chem.cas="50892-23-4", model = "3compartmentss",species="Rat", return.samples = T, samples=1000, httkpop = T) mc_OED_WY14643_NM <- calc_mc_oral_equiv(386.28, chem.cas="50892-23-4", model = "3compartmentss",species="Rat", return.samples = T, samples=1000, httkpop = T)

HepaRG cells [4] = assay: cells; details: Homo sapiens, 24 h, read-out: MMP: Benchmark concentration (µM) per imaging endpoint calculated with BMDS software
HepaRG cells [5] = assay: cells; details: Homo sapiens, 24 h, read-out: NM: Benchmark concentration (µM) per imaging endpoint calculated with BMDS software
Procedure: as §3

HepaRG cells [6] = details: HepaRG 24 h; for Mitochondrial membrane potential response (in words): population level, threshold ± 2 standard deviations of the response at the two lowest concentrations
[7] = Published in vivo pharmacokinetics (Css, clearance); details: for In vivo Css (µM): calculated with Css = (Dose*F)/(Cl*dosing interval) or k0/Cl from published pharmacokinetic parameters, ref Cunningham 2007, Adedayo Adedoyin, Leon Arons 1993b; for hepatocyte CLint: hepatocytes (back-calculated, no incubation), in vitro intrinsic hepatic clearance calculated from in vivo clearance with formula 3, read-out: Calculated Clint (ul/min/10^6 cells)
Description: For the model evaluation, Css of selected reference chemicals were predicted using formula 1 with the same dose rate from the in vivo Css measurements. For chemicals with no in vitro intrinsic hepatic clearance and fraction unbound values available in the database included in the httk package, in silico predictions from (Sipes et al. [2017]) were loaded using load_sipes2017(). […]. The formula to calculate Clint was derived from the function calc_hepatic_clearance within the httk package. Predicted Css values were then compared to published in vivo Css values. If there was no published in vivo Css available, Css was then calculated based on published in vivo pharmacokinetic parameters using the following formula (Supplementary table 3)4 Css(mg/L)=(Dose×F)/(Cl×dosinginterval)
(§2) Supplementary table 3. Comparison of benchmark concentration and predicted Css with published pharmacokinetic values. Where indicated, in vivo derived Css values were calculated using following formula: Css = (Dose*F)/(Cl*dosing interval) or Css = k0/Cl with F = bioavailability, Cl = clearance, k0 = infusion rate and Css = steady state concentration.

[8] = cited from earlier work
[9] = parameters: method as in Literature column of Supplementary table 4; details: value added to httk database; ref Supplementary table 4; cited from earlier work
[10] = parameters: method as in Hu et al. 1996; details: fraction unbound plasma; rabbit; ref Hu et al. 1996; cited from earlier work
HepaRG cells [11] = details: HepaRG 24 h, population level; threshold ± 2 standard deviations of the response at the two lowest concentrations
[12] = IVIVE reverse dosimetry: oral equivalent dose (OED) from BMC; details: IVIVE derived median over all positive imaging endpoints; rabbit simulation (R script); Table 2
Description: as §1
mc_OED_MEN_LD <- calc_mc_oral_equiv(2.835, chem.cas="58-27-5", model = "3compartmentss",species = "Rabbit",return.samples = T, samples=1000, httkpop = T) mc_OED_MEN_NM <- calc_mc_oral_equiv(8.1, chem.cas="58-27-5", model = "3compartmentss",species = "Rabbit", return.samples = T, samples=1000, httkpop = T) quantile_OED_MEN_LD <- quantile(mc_OED_MEN_LD, c(0.05, 0.5, 0.95), na.rm = TRUE) quantile_OED_MEN_NM <- quantile(mc_OED_MEN_NM, c(0.05, 0.5, 0.95), na.rm = TRUE)

HepaRG cells [13] = assay: Cell viability assessment (WST-1 assay); type: cell-based, human; details: Homo sapiens, 24 h exposure, reference chemicals, 95% CI in brackets, read-out: EC50 µM (95% CI) from cell viability (WST-1)
Description: Undifferentiated HepaRG cells were purchased from Biopredic international (Saint Grégoire, France). HepaRG cells have unlimited growth capacity and phenotypic stability, stable enzymatic activities over 4 weeks of cultivation, and similar metabolic function to primary human hepatocytes, and also avoid limitations of primary cells such as donor variability and phenotypic instability (Aninat et al. [2006]; Guillouzo et al. [2007]; Lambert et al. [2009]; Lübberstedt et al. [2011]; Andersson et al. [2012]). The line contains two cell types, hepatocyte-like and cholangiocyte-like cells (Parent et al. [2004]), which allows for elucidation of cell-specific toxicity (Jossé et al. [2008]). Cells were seeded at a density of approximately 27′000 cells/cm^2 into a 150 × 25 mm petri dish and were cultured for 2 weeks in William’s E medium (cat. nr.: 32,551,020, ThermoFisher Scientific, Massachusetts, USA) supplemented with 2 mM glutamine, 10% (v/v) fetal bovine serum (FBS) good forte (cat. nr.: P40-47,500, PAN-Biotech, Aidenbach, Germany), 100 U/ml penicillin and 100 µg/ml streptomycin (cat. nr.: 15,140,122, ThermoFisher Scientific, Massachusetts, USA), 5 µg/ml Gibco recombinant AOF insulin (cat. nr.: A11382II, ThermoFisher Scientific, Massachusetts, USA) and 50 µM hydrocortisone hemisuccinate (cat. nr.: H4881, Sigma-Aldrich, St. Louis, USA) at 37 °C and 5% CO2. Differentiation was induced by culturing the cells for another 2 weeks in the above mentioned medium supplemented with 1.7% DMSO. After 4 weeks in culture, differentiated HepaRG cells were seeded at a high density of approximately 227′000 cells/cm^2 (72,000 cells/well with 100 µl per well) into black 96-well plates with a clear bottom (cat.nr.: 3603, Corning, New York, USA) and maintained for 10 days. After 10 days, cells were first adapted to treatment medium (culture medium containing 0.5% DMSO and 2% FBS) for 48 h and then used for cell viability and high-content imaging analysis.
Cell viability was analyzed using the WST-1 assay which is based on the measurement of mitochondrial dehydrogenase activity (cat. nr: ab155902, Abcam, Cambridge, UK). HepaRG cells were exposed to chemicals at defined concentrations for 24 h. Triton X-100 (0.01%) was a positive control. One hour before the end of incubation period, 10 µl of WST-1 reagent was added to each well, quickly mixed by shaking the plate, and returned to the cell culture incubator (37 °C, 5% CO2). After 1 h, absorbance was measured (450 nm, reference wavelength 620 nm) using a plate reader (Infinite M200 Pro, Tecan group, Männerdorf, Switzerland). Absorbance was then subtracted from the reference wavelength, corrected for background by subtracting values measured without cells, and then normalized to the solvent control, which was set to 100%. Dose–response data were fitted using drc package (Version 3.0.1) (Ritz et al. [2015]) in R 3.6.1. Data were from at least 3 independent experiments with 6 technical replicates per condition.

[14] = Published in vivo pharmacokinetics (Css, plasma concentration, clearance); details: human
Procedure: For the model evaluation, Css of selected reference chemicals were predicted using formula 1 with the same dose rate from the in vivo Css measurements. […] The formula to calculate Clint was derived from the function calc_hepatic_clearance within the httk package. Predicted Css values were then compared to published in vivo Css values. If there was no published in vivo Css available, Css was then calculated based on published in vivo pharmacokinetic parameters using the following formula (Supplementary table 3)4 Css(mg/L)=(Dose×F)/(Cl×dosinginterval)
as §2

[15] = parameters: method as in earlier work; details: fraction unbound plasma; human; ref Aegerion Pharmaceuticals 2012; Bowsher et al. 1994; Scheen 1996; cited from earlier work
[16] = IVIVE derived median over all positive imaging endpoints; human simulation; Table 2
Procedure: In our study, a three-compartment steady state pharmacokinetic (PK) model was parameterized and used for the simulations. […] Human data were used except where otherwise stated. Steady-state concentration (Css) in the blood was calculated using formula 1 (Pearce et al. [2017])1 Cssmg/l=ko/(GFR×fup+Qliver+Qgut×fup×Clmetabolism/Qliver+Qgut+fup×Clmetabolism/Rblood2plasma) where ko = constant dose rate (mg/kg BW/day), fup = in vitro measured chemical fraction unbound in plasma, Clmetabolism = metabolic clearance scaled from in vitro intrinsic hepatic clearance, Rblood2plasma = ratio of blood concentration of a chemical to the plasma concentration, GFR = glomerular filtration rate (mean 5.17 ml/min/kg^3/4), Qliver = blood flow to the liver (mean 59.9 ml/min/kg^3/4), and Qgut = blood flow to the gut (mean 47.5 ml/min/kg^3/4). Fraction unbound, metabolic clearance, and Rblood2plasma values were obtained from the httk package or from literature. Recognizing that formula 1 is linear in dose rate (ko), oral equivalent doses (OED) were then calculated using the Css predicted for a 1 mg/kg/day dose rate as in formula 2 (Rotroff et al. [2010]).2 OEDmg/kg/day=BMCuM×1mg/kg/day/CssuM
The calculated OED corresponds to an oral daily dose which would lead to a plasma concentration equal to the in vitro-derived BMC. The OED is linearly related to the BMC and inversely related to Css. This equation is only valid for first-order metabolism (Rotroff et al. [2010]). A Monte Carlo analysis was used to simulate population variability in, GFR, Qliver, Qgut, and Clmetabolism across 1000 healthy individuals. Extrapolations were performed for each chemical and endpoint which was positive in the imaging assay. […]
Vice versa, predicted OED derived from BMC were compared to published exposure values of the corresponding chemicals. Simulations were performed in humans where pharmacokinetic parameters for humans were available; otherwise, estimations were calculated in rats or rabbits, as stated in Fig. 7.

[17] = human; after 50 mg p.o.; ref Aegerion Pharmaceuticals 2012; cited from earlier work
[18] = parameters: method as in Adedayo Adedoyin, Leon Arons 1993a; details: fraction unbound plasma; rat; ref Adedayo Adedoyin, Leon Arons 1993a; cited from earlier work
[19] = parameters: method as in Adedayo Adedoyin, Leon Arons 1993a; details: rat; plasma clearance; ref Adedayo Adedoyin, Leon Arons 1993a; cited from earlier work

Q: Which “Number of apoptotic cells (nuclear morphology) response (in words)” value (HepaRG cells [1]) does the source give for Cc1cccc(Nc2cc(Cl)nc(SCC(=O)O)n2)c1C [WY14643] here?
A: The value was “induced apoptosis”.

Q: And the “Lipid accumulation response (in words)” value (HepaRG cells [2])?
A: The value was “dose-dependently increased and exceeded the threshold”.

Q: What about the “Lipid accumulation response (in words)” value (HepaRG cells [2]; listed as WY-14693) of the same molecule?
A: Its value is “having the potential to induce lipid accumulation”.

Q: And the EC (BMC, 1 SD from control) (HepaRG cells [2])?
A: The EC (BMC, 1 SD from control) was 41 µM.

Q: And the “OED” value [3]?
A: Its value is 1.7 mg/kg/day.

Q: What about the EC (BMC, 1 SD from control) (HepaRG cells [4]) of the same molecule?
A: The EC (BMC, 1 SD from control) was 38.1 µM.

Q: What about the EC (BMC) (HepaRG cells [5]) of the same molecule?
A: Its EC (BMC) is 386 µM.

Q: And the “Mitochondrial membrane potential response (in words)” value (HepaRG cells [6])?
A: The value was “MMP hyperpolarization”.

Q: And the “In vivo Css (µM)” value ([7]; rat)?
A: Its value is 2.5^3,5 µM.

Q: Which results are given for CC1=CC(=O)c2ccccc2C1=O [menadione]?
A: Concentration at which increase of number of apoptotic cells (nuclear morphology) exceeded the threshold (HepaRG cells [1]): 25 µM; Lipid accumulation response (in words) (HepaRG cells [2]): increased in a dose-dependent manner; EC (BMC, 1 SD from control) (HepaRG cells [2]): 2.8 µM; In vivo Css (µM) ([8]; in rabbits, reference cell empty): 12.6^4 µM; In vivo clearance ([8]; rabbit, ref Hu et al. 1996): 49.32 L/h; LogP [9]: 2.2; Fup [10]: 0.2; Oxidative stress response (in words) (HepaRG cells [11]): unexpected negative outcomes; EC (BMC) (HepaRG cells [5]): 8.1 µM; OED [12]: 55.4 mg/kg/day; EC50 (HepaRG cells [13]): 59.1 µM; hepatocyte CLint ([7]; rabbit): 58.3 µL/min/1e6 cells

Q: With O=C(NC1CCN(CCCCC2(C(=O)NCC(F)(F)F)c3ccccc3-c3ccccc32)CC1)c1ccccc1-c1ccc(C(F)(F)F)cc1 [lomitapide] as the molecule, how does the “Number of apoptotic cells (nuclear morphology) response (in words)” value (HepaRG cells [1]) read?
A: The value was “increased above the threshold”.

Q: And the “Lipid accumulation response (in words)” value (HepaRG cells [2])?
A: The value was “not and did not give rise to lipid accumulation”.

Q: And the hepatocyte CLint ([14]; hepatocytes (back-calculated, no incubation), in vitro intrinsic hepatic clearance calculated from in vivo clearance with formula 3, read-out: Calculated Clint (ul/min/10^6 cells))?
A: The hepatocyte CLint was 48.3 µL/min/1e6 cells.

Q: And the “In vivo Css (µM)” value ([14]; calculated with Css = (Dose*F)/(Cl*dosing interval) or k0/Cl from published pharmacokinetic parameters, ref Bowsher et al. 1994, Welling et al. 1977)?
A: The value was 0.0002^3 µM.

Q: And the LogP [9]?
A: The LogP was 8.2.

Q: What about the Fup [15] of the same molecule?
A: Its Fup is 0.002.

Q: And the “Oxidative stress response (in words)” value (HepaRG cells [11])?
A: Its value is “no changes were observed”.

Q: And the EC (BMC, 1 SD from control) (HepaRG cells [4])?
A: Its EC (BMC, 1 SD from control) is 0.58 µM.

Q: What about the EC (BMC) (HepaRG cells [5]) of the same molecule?
A: Its EC (BMC) is 4 µM.

Q: And the “OED” value [16]?
A: Its value is 1333 mg/kg/day.

Q: What about the EC50 (HepaRG cells [13]) of the same molecule?
A: Its EC50 is 13.5 µM.

Q: What about the “Concentration at which decrease of mitochondrial membrane potential exceeded the threshold” value (HepaRG cells [6]) of the same molecule?
A: Its value is 12 µM.

Q: And the “In vivo clearance (L/h)” value [17]?
A: The value was 573.4656 (after 50 mg p.o.) L/h.

Q: What does the source list for O=c1cc(-c2ccccc2)oc2ccc3ccccc3c12 [β-naphthoflavone]?
A: Number of apoptotic cells (nuclear morphology) response (in words) (HepaRG cells [1]): none of the hallmarks were induced; Lipid accumulation response (in words) (HepaRG cells [2]): did not give rise to lipid accumulation; Lipid accumulation response (in words) (HepaRG cells [2]; listed as BNF): not; LogP [9]: 4.4; Oxidative stress response (in words) (HepaRG cells [11]): none of the hallmarks were induced; Fup [18]: 0.04; Mitochondrial membrane potential response (in words) (HepaRG cells [6]): none of the hallmarks were induced; hepatocyte CLint ([7]; rat): 23.4 µL/min/1e6 cells; In vivo Css (µM) ([7]; rat): 2.3^3 µM; In vivo clearance (L/h) [19]: 1.3 (plasma clearance) L/h
